For experiment [1], the target named is T1, SARS-CoV-2 PLpro (nsp3 1564–1878) (Severe acute respiratory syndrome coronavirus 2, UniProt P0DTD1). As to the kind of experiment: biochemical. The following applies: low concentration screen, read-out: % of control remaining. The arrangement: FRET-quenched peptide (Pro3) cleavage by PLpro, 10 min pre-incubation, slope over 20 min, normalised to no-compound control.

Experiment [2] has as its target T1, SARS-CoV-2 PLpro (nsp3 1564–1878). As to the kind of experiment: biochemical. The arrangement: FRET-quenched peptide (Pro3) cleavage by PLpro, 10 min pre-incubation, slope over 20 min, normalised to no-compound control. The following applies: high concentration screen, read-out: % of control remaining.

The structures appear in SMILES notation. Where a name gives a salt, the structure may show the parent alone. Read-outs that look alike come from different tables or passages of the source.

On to `CC(Cc1ccc(O)cc1)NCC(O)c1cc(O)cc(O)c1` (stereo not drawn) [Fenoterol hydrobromide], for which the remaining activity at 1.25 µM in experiment [1] (Well no.=705) was 104%. Also, the remaining activity at 3.75 µM in experiment [2] (Well no.=705) was determined as 100%.
Take `CCC(C)C(CC)C(N)=O` (stereo not drawn) [Valnoctamide]: the remaining activity at 1.25 µM in experiment [1] (Well no.=5429) was determined as 103%. In addition, the remaining activity at 3.75 µM in experiment [2] (Well no.=5429) was 110%.
For the compound `NC(=O)c1[nH]cnc1N` [5-Amino-3H-imidazole-4-Carboxamide], in experiment [1] (Well no.=7449), the remaining activity at 1.25 µM came out at 103%. Also, the remaining activity at 3.75 µM in experiment [2] (Well no.=7449) was found to be 104%.
As for `CC(C)(C#N)c1cc(Cn2cncn2)cc(C(C)(C)C#N)c1` [Anastrozole], the remaining activity at 1.25 µM in experiment [1] (Well no.=1858) came out at 101%. For the same compound, in experiment [2] (Well no.=1858), the remaining activity at 3.75 µM was determined as 102%.
As for `Nc1nc2[nH]cc(CCc3ccc(C(=O)N[C@@H](CCC(=O)O)C(=O)O)cc3)c2c(=O)[nH]1` [Pemetrexed (disodium)], the remaining activity at 1.25 µM in experiment [1] (Well no.=7500) was 102%. Further, the remaining activity at 3.75 µM in experiment [2] (Well no.=7500) worked out at 93.5%.
Consider `CC[C@@H]1/C=C/C=C/C[C@H](C)[C@H](O)[C@](C)(O)C(=O)[C@H](C)[C@@H](O)[C@H](C)C(=O)[C@H](C)[C@@H](O)[C@H](C)/C=C/C(=O)O[C@H]2[C@@H](C)[C@@H](CC1)O[C@@]1(CC[C@@H](C)[C@@H](C[C@H](C)O)O1)[C@@H]2C` [Oligomycin A], for which the remaining activity at 1.25 µM stood at 105% in experiment [1] (Well no.=850) and 98.1% in experiment [1] (Well no.=3423). The remaining activity at 3.75 µM in experiment [2] (Well no.=850) came out at 103%; in experiment [2] (Well no.=3423), 96.5%.
`O=c1[nH]nc(Sc2ncc([N+](=O)[O-])s2)n1-c1ccc2c(c1)OCCO2` [BI-78D3]: the remaining activity at 1.25 µM in experiment [1] (Well no.=6058) came to 101%. Besides, in experiment [2] (Well no.=6058), the remaining activity at 3.75 µM was found to be 96.9%.
As for `CC(C)C[C@H](NC(=O)[C@H](CC(C)C)NC(=O)[C@H](Cc1ccccc1)NC(=O)[C@@H](N)CO)C(=O)N[C@@H](CCCN=C(N)N)C(=O)N[C@@H](CC(N)=O)C(=O)O` [TRAP-6], the remaining activity at 1.25 µM in experiment [1] (Well no.=6278) was 101%; in experiment [1] (Well no.=8364) it was 98.5%. The remaining activity at 3.75 µM worked out at 103% in experiment [2] (Well no.=6278) and 97.2% in experiment [2] (Well no.=8364).
Turning to `Cc1cn(-c2cc(NC(=O)c3ccc(C)c(Nc4nccc(-c5cccnc5)n4)c3)cc(C(F)(F)F)c2)cn1` [Nilotinib], in experiment [1] (Well no.=2793), the remaining activity at 1.25 µM was 111%. In addition, the remaining activity at 3.75 µM in experiment [2] (Well no.=2793) was 107%.
As for `COc1cc2c(cc1OC)CN(CCc1ccc(NC(=O)c3cc(OC)c(OC)cc3NC(=O)c3cnc4ccccc4c3)cc1)CC2` [Tariquidar], in experiment [1] (Well no.=4796), the remaining activity at 1.25 µM came to 98.7%. In addition, the remaining activity at 3.75 µM in experiment [2] (Well no.=4796) was 92.7%.
With `O=S1(=O)N(CCN2CC=C(c3c[nH]c4cc(F)ccc34)CC2)c2cccc3c2N1CCC3` [LY-367,265], the remaining activity at 1.25 µM in experiment [1] (Well no.=785) amounted to 100%. In experiment [2] (Well no.=785), the remaining activity at 3.75 µM stood at 103%.
For `CN(C(=O)c1ccc(F)cc1C(F)(F)F)C1CCN(c2nnc(-c3ccnn3C)c3ccccc23)CC1` [LY2940680], in experiment [1] (Well no.=4890), the remaining activity at 1.25 µM came to 88.9%. Besides, the remaining activity at 3.75 µM in experiment [2] (Well no.=4890) came out at 82.4%.
Take `CC(=O)O/N=C1\C(=O)N(Cc2cc(Cl)ccc2Cl)c2ccc(Cl)cc21` [LDN-57444]: the remaining activity at 1.25 µM in experiment [1] (Well no.=5908) amounted to 94.9%. Besides, the remaining activity at 3.75 µM in experiment [2] (Well no.=5908) was 91.7%.
Consider `O=C(O)c1cc(=O)[nH]c(=O)[nH]1` [Orotic acid], for which the remaining activity at 1.25 µM in experiment [1] (Well no.=6207) was 108%. In addition, in experiment [2] (Well no.=6207), the remaining activity at 3.75 µM came out at 99.7%.
With `COc1cc2ncc(-c3ccccc3)nc2cc1OC` [Tyrphostin AG 1296], the remaining activity at 1.25 µM in experiment [1] (Well no.=1477) was found to be 97.5%. Besides, the remaining activity at 3.75 µM in experiment [2] (Well no.=1477) is 97.9%.
Take `CCCCC[C@@H](O)/C=C/[C@H]1[C@H](C/C=C\CCCC(=O)O)[C@@H](O)C[C@@H]1O` [9b,11a Prostaglandin F2]: the remaining activity at 1.25 µM in experiment [1] (Well no.=4521) is 101%. In addition, the remaining activity at 3.75 µM in experiment [2] (Well no.=4521) turned out to be 103%.
For `CN1CCN2c3ccccc3Cc3ccccc3C2C1` (stereo not drawn) [Mianserin hydrochloride], in experiment [1] (Well no.=874), the remaining activity at 1.25 µM was determined as 107%. For the same compound, the remaining activity at 3.75 µM in experiment [2] (Well no.=874) was determined as 106%.
For `C/C1=C\CC(C)(C)/C=C/C(=O)/C(C)=C/CC1` [Zerumbone], the remaining activity at 1.25 µM in experiment [1] (Well no.=3549) turned out to be 96.6%. The remaining activity at 3.75 µM in experiment [2] (Well no.=3549) turned out to be 98.6%.
On to `C[C@@]1(C2CCCC2)Cc2cc(OCC(=O)O)c(Cl)c(Cl)c2C1=O` [R(+)-IAA-94], for which the remaining activity at 1.25 µM in experiment [1] (Well no.=921) came to 104%. In addition, the remaining activity at 3.75 µM in experiment [2] (Well no.=921) turned out to be 105%.
For `Cc1cc([N+](=O)[O-])ccc1NS(=O)(=O)c1cc(Cl)ccc1Cl` [FH535], in experiment [1] (Well no.=8814), the remaining activity at 1.25 µM worked out at 96.3%. The remaining activity at 3.75 µM in experiment [2] (Well no.=8814) turned out to be 98.3%.
As to `COC(=O)[C@@H](N)CSC/C=C(\C)CC/C=C(\C)CCC=C(C)C` [S-Farnesyl-L-cysteine methylester], in experiment [1] (Well no.=4566), the remaining activity at 1.25 µM is 98.6%. The remaining activity at 3.75 µM in experiment [2] (Well no.=4566) is 99.1%.
Take `Nc1nc(OCc2cc(Br)cs2)c2[nH]cnc2n1` [Lomeguatrib]: the remaining activity at 1.25 µM in experiment [1] (Well no.=5885) stood at 105%. Moreover, the remaining activity at 3.75 µM in experiment [2] (Well no.=5885) stood at 105%.
For the compound `CCN(CC)CCCCN1c2ccccc2Oc2ccc(Cl)cc21` [10-[4'-(N,N-Diethylamino)butyl]-2-chlorophenoxazine hydrochloride], the remaining activity at 1.25 µM in experiment [1] (Well no.=2574) amounted to 97.3%. The remaining activity at 3.75 µM in experiment [2] (Well no.=2574) came out at 101%.
Turning to `NCC(O)c1ccc(O)cc1` (racemic), in experiment [1] (Well no.=1038), the remaining activity at 1.25 µM was determined as 97.4%. The remaining activity at 3.75 µM in experiment [2] (Well no.=1038) is 95.7%.
Consider `C[N+](C)(C)CCCCCC[N+](C)(C)C` [Hexamethonium bromide], for which the remaining activity at 1.25 µM in experiment [1] (Well no.=702) turned out to be 98.3%. Further, the remaining activity at 3.75 µM in experiment [2] (Well no.=702) was determined as 100%.
`Nc1ccc2c3c(cccc13)C(=O)NC2=O` [4-Amino-1,8-naphthalimide]: in experiment [1] (Well no.=295), the remaining activity at 1.25 µM turned out to be 103%. In addition, the remaining activity at 3.75 µM in experiment [2] (Well no.=295) was 92.9%.
Consider `C[C@H]1CC[C@@]2(OC1)O[C@H]1C[C@H]3[C@@H]4CC[C@@H]5C[C@@H](O)CC[C@]5(C)[C@H]4CC[C@]3(C)[C@H]1[C@@H]2C` [Sarsasapogenin], for which, in experiment [1] (Well no.=3102), the remaining activity at 1.25 µM was 95%. Besides, in experiment [2] (Well no.=3102), the remaining activity at 3.75 µM stood at 92.8%.
As for `OC[C@H]1NC[C@@H](O)[C@@H]1O` [1,4-Dideoxy-1,4-imino-D-arabinitol], the remaining activity at 1.25 µM in experiment [1] (Well no.=589) was 102%. Moreover, the remaining activity at 3.75 µM in experiment [2] (Well no.=589) was 100%.
In the case of `CC(C)c1cc(/C=C(\C#N)C(=O)NCCCc2ccccc2)cc(C(C)C)c1O` [Tyrphostin SU 1498], in experiment [1] (Well no.=5970), the remaining activity at 1.25 µM worked out at 90%. Besides, the remaining activity at 3.75 µM in experiment [2] (Well no.=5970) worked out at 89.5%.
Take `Nc1cc[nH]c(=O)n1` [Cytosine]: the remaining activity at 1.25 µM in experiment [1] (Well no.=6579) came out at 101%. The remaining activity at 3.75 µM in experiment [2] (Well no.=6579) amounted to 103%.
Regarding `Nc1ccc(-c2ccc3ncc4ccc(=O)n(-c5cccc(C(F)(F)F)c5)c4c3c2)cn1` [Torin 2], in experiment [1] (Well no.=4787), the remaining activity at 1.25 µM was determined as 95.6%. The remaining activity at 3.75 µM in experiment [2] (Well no.=4787) came out at 97.9%.

The values above are taken from paper PMC8286840, “Identifying SARS-CoV-2 antiviral compounds by screening for small molecule inhibitors of Nsp3 papain-like protease” (Biochemical Journal, 2021).
